# Measured values: ChEMBL document CHEMBL5528008, “Design and synthesis of the first PARP-1 and proteasome dual inhibitors to treat breast cancer” (Eur J Med Chem, 2024)
# Assays:
# [1] = biological target: Poly [ADP-ribose] polymerase 1 (Homo sapiens, UniProt P09874); assay: Inhibition of PARP-1 (unknown origin) using Femto-ECL as substrate preincubated for 2.7 hrs followed by substrate addition by chemiluminescence assay
# [2] = tested on: MDA-MB-231; assay: Cytotoxicity against human MDA-MB-231 cells assessed as inhibition of cell growth incubated for 72 hrs by MTT assay; format: functional, cell-based; settings: MDA-MB-231, 72 h
# [3] = tested on: MCF7; assay: Cytotoxicity against human MCF7 cells assessed as inhibition of cell growth incubated for 72 hrs by MTT assay; format: functional, cell-based; settings: MCF7, 72 h
# [4] = tested on: BT-549; assay: Cytotoxicity against human BT-549 cells assessed as inhibition of cell growth incubated for 72 hrs by MTT assay; format: functional, cell-based; settings: BT-549, 72 h
# [5] = biological target: 20S proteasome; assay: Inhibition of 20S proteasome (unknown origin) using […] as substrate; format: protein-complex assay, Homo sapiens
# Poly [ADP-ribose] polymerase 1, sequence (P09874 whole entry): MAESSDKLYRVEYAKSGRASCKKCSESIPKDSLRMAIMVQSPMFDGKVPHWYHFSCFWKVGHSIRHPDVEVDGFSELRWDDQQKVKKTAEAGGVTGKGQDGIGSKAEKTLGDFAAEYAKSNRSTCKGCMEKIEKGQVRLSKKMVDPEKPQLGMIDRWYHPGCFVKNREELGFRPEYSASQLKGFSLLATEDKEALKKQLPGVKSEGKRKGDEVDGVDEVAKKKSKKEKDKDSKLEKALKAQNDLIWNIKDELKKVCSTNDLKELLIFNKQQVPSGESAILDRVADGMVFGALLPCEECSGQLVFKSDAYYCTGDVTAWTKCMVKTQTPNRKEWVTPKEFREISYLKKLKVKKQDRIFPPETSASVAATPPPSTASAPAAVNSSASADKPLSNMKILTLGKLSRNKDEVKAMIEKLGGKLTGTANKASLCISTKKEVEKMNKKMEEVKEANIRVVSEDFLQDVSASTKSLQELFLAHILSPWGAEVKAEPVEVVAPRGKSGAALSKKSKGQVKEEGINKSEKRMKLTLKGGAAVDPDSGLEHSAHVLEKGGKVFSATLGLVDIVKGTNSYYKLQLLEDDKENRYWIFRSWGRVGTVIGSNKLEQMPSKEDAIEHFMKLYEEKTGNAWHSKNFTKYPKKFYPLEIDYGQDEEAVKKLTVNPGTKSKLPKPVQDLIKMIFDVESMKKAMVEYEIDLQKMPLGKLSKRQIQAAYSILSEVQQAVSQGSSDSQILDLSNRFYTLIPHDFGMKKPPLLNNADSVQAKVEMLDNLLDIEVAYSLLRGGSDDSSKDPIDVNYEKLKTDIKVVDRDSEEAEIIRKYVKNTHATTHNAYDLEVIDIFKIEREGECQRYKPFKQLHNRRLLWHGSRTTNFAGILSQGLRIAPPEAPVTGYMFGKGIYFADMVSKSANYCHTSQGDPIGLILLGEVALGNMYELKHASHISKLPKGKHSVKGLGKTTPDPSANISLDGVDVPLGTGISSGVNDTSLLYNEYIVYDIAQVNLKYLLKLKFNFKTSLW
IC50 [1] [nM],IC50 [5] [nM],Compound,IC50 [2] [nM],IC50 [3] [nM],IC50 [4] [nM]
> 1000,2150,CC(C)C[C@H](NC(=O)CNC(=O)c1cc(Cc2ccc(=O)[nH]n2)ccc1F)B1O[C@@H]2C[C@@H]3C[C@@H](C3(C)C)[C@]2(C)O1,–,–,–
–,1060,CC(C)C[C@H](NC(=O)[C@H](Cc1c[nH]c2ccccc12)NC(=O)c1cc(Cc2n[nH]c(=O)c3ccccc23)ccc1F)C(=O)[C@@]1(C)CO1,–,–,–
> 1000,–,Cc1c(Cc2ccc(F)c(C(=O)N[C@@H](Cc3ccccc3)C(=O)N[C@@H](CC(C)C)B3O[C@@H]4C[C@@H]5C[C@@H](C5(C)C)[C@]4(C)O3)c2)n[nH]c(=O)c1C,–,–,–
98,56.1,CC(C)C[C@H](NC(=O)[C@H](Cc1c[nH]c2ccccc12)NC(=O)c1cc(Cc2n[nH]c(=O)c3ccccc23)ccc1F)B(O)O,–,–,–

# More lines, now with the values behind:
Compound,IC50 [1] [nM],IC50 [5] [nM],IC50 [2] [nM],IC50 [3] [nM],IC50 [4] [nM]
CC(C)C[C@H](NC(=O)[C@@H](NC(=O)c1cc(Cc2n[nH]c(=O)c3ccccc23)ccc1F)C(C)C)B1O[C@@H]2C[C@@H]3C[C@@H](C3(C)C)[C@]2(C)O1,151,98.3,20.8,174,13.3
CCC[C@H](NC(=O)c1cc(Cc2n[nH]c(=O)c3ccccc23)ccc1F)C(=O)N[C@@H](CC(C)C)B1O[C@@H]2C[C@@H]3C[C@@H](C3(C)C)[C@]2(C)O1,203,103,338,87.9,605
CC(C)C[C@H](NC(=O)CNC(=O)c1cc(Cc2n[nH]c(=O)c3ccccc23)ccc1F)B1O[C@@H]2C[C@@H]3C[C@@H](C3(C)C)[C@]2(C)O1,2.1,157,249,355,97.7
CC(C)C[C@H](NC(=O)[C@@H](NC(=O)c1cc(Cc2n[nH]c(=O)c3ccccc23)ccc1F)[C@H](C)O)B1O[C@@H]2C[C@@H]3C[C@@H](C3(C)C)[C@]2(C)O1,273,13.8,178,493,179
CC(C)C[C@H](NC(=O)[C@H](Cc1ccccc1)NC(=O)c1cc(COc2ccccc2C(N)=O)ccc1F)B1O[C@@H]2C[C@@H]3C[C@@H](C3(C)C)[C@]2(C)O1,> 1000,–,–,–,–
CC(C)C[C@H](NC(=O)[C@H](Cc1ccccc1)NC(=O)c1cc(Cc2n[nH]c(=O)c3ccccc23)ccc1F)B1O[C@@H]2C[C@@H]3C[C@@H](C3(C)C)[C@]2(C)O1,98,24.7,63.6,58.6,84.9
CC(C)C[C@H](NC(=O)[C@H](Cc1ccccc1)NC(=O)c1cc(Cc2n[nH]c(=O)c3ccccc23)ccc1F)C(=O)[C@@]1(C)CO1,–,1420,–,–,–
CC(C)C[C@H](NC(=O)[C@H](Cc1ccc(O)cc1)NC(=O)c1cc(Cc2n[nH]c(=O)c3ccccc23)ccc1F)B1O[C@@H]2C[C@@H]3C[C@@H](C3(C)C)[C@]2(C)O1,116,47.6,328,980,348
